Experimental data as given in the NIST ThermoML archive (doi:10.1016/j.jct.2011.09.003).

Key:
[1] = xn = mol fraction of the nth substance listed; conditions: 298.15 K; for surface tension liquid-gas: digital tensiometer; for mass density: 101 kPa, Liquid, Vibrating tube method
[2] = for surface tension liquid-gas: digital tensiometer; for mass density: 101.33 kPa, Liquid, Vibrating tube method

O [water] + CCCC[n+]1ccccc1.O=[N+]([O-])[O-]
[1], x2 = 0
Conditions | mass density [kg/m3] | surface tension liquid-gas [mN/m]
– | 1000 | 72.03

CCCC[n+]1ccccc1.O=[N+]([O-])[O-] [1-butylpyridinium nitrate]
[2]
Conditions | mass density [kg/m3] | surface tension liquid-gas [mN/m]
293.15 K | 1192.7 | 52.32
298.15 K | 1188.5 | 51.53
303.15 K | 1185.4 | 51.21
308.15 K | 1181.2 | 50.97
313.15 K | 1176.5 | 50.53
318.15 K | 1173.5 | 49.99
323.15 K | 1169.2 | 49.53
328.15 K | 1165.6 | 49.3
333.15 K | 1163.2 | 48.96
338.15 K | 1159.4 | 48.64

CCCC[n+]1ccccc1.O=[N+]([O-])[O-] [1-butylpyridinium nitrate] + O
[1]
Conditions | mass density [kg/m3] | surface tension liquid-gas [mN/m]
x1 = 0.0097 | 1016.3 | 43.71
x1 = 0.015 | 1024.4 | 40.11
x1 = 0.0359 | 1051.1 | 37.59
x1 = 0.0498 | 1067 | 37.5
x1 = 0.0593 | 1076.1 | 37.6
x1 = 0.0816 | 1092.6 | 38.02
x1 = 0.1136 | 1113.6 | 40.03
x1 = 0.2067 | 1144.7 | 41.69
x1 = 0.3247 | 1165.5 | 44.01
x1 = 0.447 | 1176.9 | 46.05
x1 = 0.633 | 1182.2 | 48.01
x1 = 0.7604 | 1185.3 | 49.25
x1 = 0.8226 | 1186.6 | 49.56
x1 = 0.9023 | 1188 | 50.78
x1 = 1 | 1188.5 | 51.53
